Laboratory results reported in patent US20120180807A1, “Method for Chemically Modifying the Internal Region of a Hair Shaft” (priority 2011, published 2012).

Test: Water solubility / dissolving of monomer and polymer (other in-vitro-experiments)
Format: physicochemical
Description: However, dissolving polymer, once it had been dried, takes considerably longer (some hours) than dissolving dry monomer (some seconds). […] All the 20 hair fibres of each sample without H2O2 pre-treatment lost their radioactivity of the cuticle area by washing, whereas all the other samples kept it.

With `C=CC(=O)OCCCS(=O)(=O)O` [3-SPA, 3-sulfopropylacrylate] the water solubility was “water soluble” and the “time for dissolving in water” value (dry / once dried material) was “some seconds”.
